What was measured:
Type in all cases: cell-based
[1] = target: proteins of U3A human fibrosarcoma cells (4462 proteins detected) (Homo sapiens, UniProt O75170); conditions: protein PPP6R2; soluble abundance after heat, U3A cells
[2] = target: proteins of U3A human fibrosarcoma cells (4462 proteins detected) (Homo sapiens, UniProt Q99633); conditions: protein PRPF18; U3A cells
[3] = target: proteins of U3A human fibrosarcoma cells (4462 proteins detected) (Homo sapiens, UniProt Q8N5G2); conditions: protein TMEM57; U3A cells
[4] = target: proteins of U3A human fibrosarcoma cells (4462 proteins detected) (Homo sapiens, UniProt Q9Y6E0); conditions: protein STK24; soluble abundance after heat, U3A cells
[5] = target: proteins of U3A human fibrosarcoma cells (4462 proteins detected) (Homo sapiens, UniProt Q9UQR1); conditions: protein ZNF148; U3A, 10 μM, 2 h
[6] = target: proteins of U3A human fibrosarcoma cells (4462 proteins detected) (Homo sapiens, UniProt Q8IYB8); conditions: protein SUPV3L1; U3A cells
[7] = target: proteins of U3A human fibrosarcoma cells (4462 proteins detected) (Homo sapiens, UniProt O00391); conditions: protein QSOX1; U3A cells
[8] = target: proteins of U3A human fibrosarcoma cells (4462 proteins detected) (Homo sapiens, UniProt P36543); conditions: protein ATP6V1E1; soluble abundance after heat, U3A cells
[9] = target: proteins of U3A human fibrosarcoma cells (4462 proteins detected) (Homo sapiens, UniProt Q96DH6); conditions: protein MSI2; U3A, 10 μM, 2 h
[10] = target: proteins of U3A human fibrosarcoma cells (4462 proteins detected) (Homo sapiens, UniProt P52272); conditions: protein HNRNPM; U3A cells
[11] = target: proteins of U3A human fibrosarcoma cells (4462 proteins detected) (Homo sapiens, UniProt P51648); conditions: protein ALDH3A2; U3A cells
[12] = target: proteins of U3A human fibrosarcoma cells (4462 proteins detected) (Homo sapiens, UniProt Q09161); conditions: protein NCBP1; soluble abundance after heat, U3A cells
[13] = target: proteins of U3A human fibrosarcoma cells (4462 proteins detected) (Homo sapiens, UniProt Q12979); conditions: protein ABR; U3A cells
[14] = target: proteins of U3A human fibrosarcoma cells (4462 proteins detected) (Homo sapiens, UniProt Q01518); conditions: protein CAP1; U3A cells
[15] = target: proteins of U3A human fibrosarcoma cells (4462 proteins detected) (Homo sapiens, UniProt Q9NX58); conditions: protein LYAR; U3A cells
[16] = target: proteins of U3A human fibrosarcoma cells (4462 proteins detected) (Homo sapiens, UniProt Q06323); conditions: protein PSME1; soluble abundance after heat, U3A cells
[17] = target: proteins of U3A human fibrosarcoma cells (4462 proteins detected) (Homo sapiens, UniProt Q9UMX5); conditions: protein NENF, U3A cells
[18] = target: proteins of U3A human fibrosarcoma cells (4462 proteins detected) (Homo sapiens, UniProt Q9UNN8); conditions: protein PROCR; U3A cells
[19] = target: proteins of U3A human fibrosarcoma cells (4462 proteins detected) (Homo sapiens, UniProt Q53FT3); conditions: protein C11orf73; U3A, 10 μM, 2 h
[20] = target: proteins of U3A human fibrosarcoma cells (4462 proteins detected) (Homo sapiens, UniProt P27694); conditions: protein RPA1; U3A cells
[21] = target: proteins of U3A human fibrosarcoma cells (4462 proteins detected) (Homo sapiens, UniProt O95671); conditions: protein ASMTL; U3A, 10 μM, 2 h
[22] = target: proteins of U3A human fibrosarcoma cells (4462 proteins detected) (Homo sapiens, UniProt Q9NQZ2); conditions: protein UTP3; soluble abundance after heat, U3A cells
[23] = target: proteins of U3A human fibrosarcoma cells (4462 proteins detected) (Homo sapiens, UniProt Q96PE7); conditions: protein MCEE; U3A, 10 μM, 2 h
[24] = target: proteins of U3A human fibrosarcoma cells (4462 proteins detected) (Homo sapiens, UniProt P57105); conditions: protein SYNJ2BP-COX16; SYNJ2BP, U3A cells
[25] = target: proteins of U3A human fibrosarcoma cells (4462 proteins detected) (Homo sapiens, UniProt Q9UHA3); conditions: protein RSL24D1; U3A cells
[26] = target: proteins of U3A human fibrosarcoma cells (4462 proteins detected) (Homo sapiens, UniProt Q86V21); conditions: protein AACS, U3A cells
[27] = target: proteins of U3A human fibrosarcoma cells (4462 proteins detected) (Homo sapiens, UniProt Q6UWP8); conditions: protein SBSN, U3A cells
[28] = target: proteins of U3A human fibrosarcoma cells (4462 proteins detected) (Homo sapiens, UniProt Q16891); conditions: protein IMMT; U3A cells
[29] = target: proteins of U3A human fibrosarcoma cells (4462 proteins detected) (Homo sapiens, UniProt Q5SZL2); conditions: protein CEP85L; U3A, 10 μM, 2 h
proteins of U3A human fibrosarcoma cells (4462 proteins detected) (Homo sapiens, UniProt Q5SZL2), sequence (Q5SZL2 whole entry): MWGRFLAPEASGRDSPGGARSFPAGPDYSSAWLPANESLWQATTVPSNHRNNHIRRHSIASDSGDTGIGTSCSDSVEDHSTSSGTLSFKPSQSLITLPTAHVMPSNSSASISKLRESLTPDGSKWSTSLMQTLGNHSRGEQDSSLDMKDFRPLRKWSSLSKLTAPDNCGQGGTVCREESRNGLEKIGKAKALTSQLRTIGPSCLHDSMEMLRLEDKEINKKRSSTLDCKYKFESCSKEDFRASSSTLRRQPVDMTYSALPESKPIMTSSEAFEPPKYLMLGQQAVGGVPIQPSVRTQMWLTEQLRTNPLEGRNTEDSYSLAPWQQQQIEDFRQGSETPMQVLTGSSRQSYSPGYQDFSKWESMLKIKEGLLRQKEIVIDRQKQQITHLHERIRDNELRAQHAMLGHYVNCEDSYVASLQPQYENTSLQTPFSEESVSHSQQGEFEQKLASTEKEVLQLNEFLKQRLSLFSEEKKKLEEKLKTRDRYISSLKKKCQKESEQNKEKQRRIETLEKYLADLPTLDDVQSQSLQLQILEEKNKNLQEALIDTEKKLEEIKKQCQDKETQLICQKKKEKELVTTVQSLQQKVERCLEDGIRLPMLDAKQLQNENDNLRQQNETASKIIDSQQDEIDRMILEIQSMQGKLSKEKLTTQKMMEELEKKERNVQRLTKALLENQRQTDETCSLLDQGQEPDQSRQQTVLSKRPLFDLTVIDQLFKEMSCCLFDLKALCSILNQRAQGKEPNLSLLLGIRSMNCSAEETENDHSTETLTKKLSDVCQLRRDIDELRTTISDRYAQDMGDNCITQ

proteins of U3A human fibrosarcoma cells (4462 proteins detected) (Homo sapiens, UniProt O00391), sequence (O00391 30-747): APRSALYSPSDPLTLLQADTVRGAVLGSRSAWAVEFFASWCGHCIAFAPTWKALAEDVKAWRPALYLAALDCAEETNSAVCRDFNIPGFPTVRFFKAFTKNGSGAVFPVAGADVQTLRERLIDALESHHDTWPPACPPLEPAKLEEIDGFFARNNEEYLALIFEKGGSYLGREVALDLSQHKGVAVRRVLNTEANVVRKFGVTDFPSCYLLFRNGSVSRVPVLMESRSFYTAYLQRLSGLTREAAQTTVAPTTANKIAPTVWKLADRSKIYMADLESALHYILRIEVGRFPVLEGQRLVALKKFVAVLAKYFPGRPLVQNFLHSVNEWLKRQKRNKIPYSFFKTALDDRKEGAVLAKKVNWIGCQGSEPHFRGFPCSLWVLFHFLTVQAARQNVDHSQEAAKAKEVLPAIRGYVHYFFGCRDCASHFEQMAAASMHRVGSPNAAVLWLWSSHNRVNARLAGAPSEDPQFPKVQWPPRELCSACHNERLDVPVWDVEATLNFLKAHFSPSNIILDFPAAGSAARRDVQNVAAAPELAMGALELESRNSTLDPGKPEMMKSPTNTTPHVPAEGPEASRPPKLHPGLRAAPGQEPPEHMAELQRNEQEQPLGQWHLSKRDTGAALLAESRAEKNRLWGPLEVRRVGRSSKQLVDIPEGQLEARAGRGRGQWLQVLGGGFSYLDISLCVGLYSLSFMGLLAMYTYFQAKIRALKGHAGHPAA
proteins of U3A human fibrosarcoma cells (4462 proteins detected) (Homo sapiens, UniProt Q9NQZ2), sequence (Q9NQZ2 whole entry): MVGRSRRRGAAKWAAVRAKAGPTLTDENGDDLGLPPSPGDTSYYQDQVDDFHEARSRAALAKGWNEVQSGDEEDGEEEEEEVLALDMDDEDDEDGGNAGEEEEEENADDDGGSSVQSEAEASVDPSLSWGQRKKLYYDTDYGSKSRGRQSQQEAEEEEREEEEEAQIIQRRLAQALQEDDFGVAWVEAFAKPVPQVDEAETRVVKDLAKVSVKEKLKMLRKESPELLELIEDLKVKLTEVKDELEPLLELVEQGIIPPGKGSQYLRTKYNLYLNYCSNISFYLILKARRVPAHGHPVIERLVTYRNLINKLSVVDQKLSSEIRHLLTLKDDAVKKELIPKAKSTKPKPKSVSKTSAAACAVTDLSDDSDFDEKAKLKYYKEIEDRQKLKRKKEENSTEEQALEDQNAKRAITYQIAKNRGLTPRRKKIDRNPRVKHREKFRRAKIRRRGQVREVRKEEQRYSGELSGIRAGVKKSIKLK
proteins of U3A human fibrosarcoma cells (4462 proteins detected) (Homo sapiens, UniProt Q09161), sequence (Q09161 whole entry): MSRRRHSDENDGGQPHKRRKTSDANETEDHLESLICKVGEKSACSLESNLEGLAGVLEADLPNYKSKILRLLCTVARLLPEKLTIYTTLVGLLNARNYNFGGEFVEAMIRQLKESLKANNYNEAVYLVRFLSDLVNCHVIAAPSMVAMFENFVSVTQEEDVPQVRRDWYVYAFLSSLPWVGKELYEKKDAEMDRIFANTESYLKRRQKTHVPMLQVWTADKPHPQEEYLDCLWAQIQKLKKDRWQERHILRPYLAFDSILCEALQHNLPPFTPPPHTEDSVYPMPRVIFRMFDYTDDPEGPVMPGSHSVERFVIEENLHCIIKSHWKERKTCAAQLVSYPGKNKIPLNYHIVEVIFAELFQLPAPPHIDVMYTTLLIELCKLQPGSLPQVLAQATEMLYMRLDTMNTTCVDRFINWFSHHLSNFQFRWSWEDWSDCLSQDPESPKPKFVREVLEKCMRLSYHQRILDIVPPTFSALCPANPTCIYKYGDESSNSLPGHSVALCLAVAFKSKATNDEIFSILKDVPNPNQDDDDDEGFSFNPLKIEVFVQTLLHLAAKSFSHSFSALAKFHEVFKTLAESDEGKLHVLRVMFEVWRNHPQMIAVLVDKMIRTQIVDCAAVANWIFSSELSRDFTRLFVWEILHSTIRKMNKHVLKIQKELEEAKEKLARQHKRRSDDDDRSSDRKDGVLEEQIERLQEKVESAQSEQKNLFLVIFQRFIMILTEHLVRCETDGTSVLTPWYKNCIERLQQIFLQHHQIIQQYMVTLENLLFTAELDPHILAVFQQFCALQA
proteins of U3A human fibrosarcoma cells (4462 proteins detected) (Homo sapiens, UniProt Q8N5G2), sequence (Q8N5G2 whole entry): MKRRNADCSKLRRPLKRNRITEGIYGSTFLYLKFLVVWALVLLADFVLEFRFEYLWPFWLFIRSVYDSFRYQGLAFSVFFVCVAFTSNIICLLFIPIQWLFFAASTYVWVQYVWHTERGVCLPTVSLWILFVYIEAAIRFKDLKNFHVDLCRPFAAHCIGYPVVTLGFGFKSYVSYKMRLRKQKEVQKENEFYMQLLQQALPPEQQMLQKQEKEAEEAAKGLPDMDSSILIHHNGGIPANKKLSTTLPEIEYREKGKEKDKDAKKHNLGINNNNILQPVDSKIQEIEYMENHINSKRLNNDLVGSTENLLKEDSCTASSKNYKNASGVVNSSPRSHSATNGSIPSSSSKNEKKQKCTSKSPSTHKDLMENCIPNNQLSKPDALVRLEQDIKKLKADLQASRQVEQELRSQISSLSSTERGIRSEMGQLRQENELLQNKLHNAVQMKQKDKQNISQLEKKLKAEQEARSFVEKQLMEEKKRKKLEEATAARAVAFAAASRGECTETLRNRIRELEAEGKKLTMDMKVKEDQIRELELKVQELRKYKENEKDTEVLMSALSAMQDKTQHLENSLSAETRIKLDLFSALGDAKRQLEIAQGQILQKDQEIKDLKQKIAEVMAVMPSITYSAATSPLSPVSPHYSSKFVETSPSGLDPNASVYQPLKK
proteins of U3A human fibrosarcoma cells (4462 proteins detected) (Homo sapiens, UniProt Q9NX58), sequence (Q9NX58 whole entry): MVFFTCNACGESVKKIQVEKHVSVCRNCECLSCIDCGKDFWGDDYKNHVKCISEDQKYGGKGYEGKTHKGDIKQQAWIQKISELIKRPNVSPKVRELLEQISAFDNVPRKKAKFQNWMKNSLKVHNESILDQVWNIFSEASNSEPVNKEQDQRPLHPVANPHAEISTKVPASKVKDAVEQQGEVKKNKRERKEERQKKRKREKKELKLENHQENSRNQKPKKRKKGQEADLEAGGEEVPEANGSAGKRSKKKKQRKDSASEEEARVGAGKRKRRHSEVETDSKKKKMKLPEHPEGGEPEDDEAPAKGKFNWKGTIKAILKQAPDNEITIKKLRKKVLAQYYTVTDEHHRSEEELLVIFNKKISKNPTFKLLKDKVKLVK
proteins of U3A human fibrosarcoma cells (4462 proteins detected) (Homo sapiens, UniProt Q9Y6E0), sequence (Q9Y6E0 whole entry): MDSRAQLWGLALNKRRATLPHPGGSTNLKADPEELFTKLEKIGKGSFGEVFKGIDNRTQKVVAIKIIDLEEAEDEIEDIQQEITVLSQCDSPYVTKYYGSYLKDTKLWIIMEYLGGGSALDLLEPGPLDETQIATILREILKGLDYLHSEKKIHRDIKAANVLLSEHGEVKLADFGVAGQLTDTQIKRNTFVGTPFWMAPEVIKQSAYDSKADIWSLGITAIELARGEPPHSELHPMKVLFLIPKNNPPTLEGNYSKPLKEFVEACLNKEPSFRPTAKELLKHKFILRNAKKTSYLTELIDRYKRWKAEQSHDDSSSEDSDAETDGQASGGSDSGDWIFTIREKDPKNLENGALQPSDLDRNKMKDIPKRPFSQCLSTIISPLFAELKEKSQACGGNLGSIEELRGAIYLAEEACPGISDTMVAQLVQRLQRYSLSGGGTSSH
proteins of U3A human fibrosarcoma cells (4462 proteins detected) (Homo sapiens, UniProt P27694), sequence (P27694 whole entry): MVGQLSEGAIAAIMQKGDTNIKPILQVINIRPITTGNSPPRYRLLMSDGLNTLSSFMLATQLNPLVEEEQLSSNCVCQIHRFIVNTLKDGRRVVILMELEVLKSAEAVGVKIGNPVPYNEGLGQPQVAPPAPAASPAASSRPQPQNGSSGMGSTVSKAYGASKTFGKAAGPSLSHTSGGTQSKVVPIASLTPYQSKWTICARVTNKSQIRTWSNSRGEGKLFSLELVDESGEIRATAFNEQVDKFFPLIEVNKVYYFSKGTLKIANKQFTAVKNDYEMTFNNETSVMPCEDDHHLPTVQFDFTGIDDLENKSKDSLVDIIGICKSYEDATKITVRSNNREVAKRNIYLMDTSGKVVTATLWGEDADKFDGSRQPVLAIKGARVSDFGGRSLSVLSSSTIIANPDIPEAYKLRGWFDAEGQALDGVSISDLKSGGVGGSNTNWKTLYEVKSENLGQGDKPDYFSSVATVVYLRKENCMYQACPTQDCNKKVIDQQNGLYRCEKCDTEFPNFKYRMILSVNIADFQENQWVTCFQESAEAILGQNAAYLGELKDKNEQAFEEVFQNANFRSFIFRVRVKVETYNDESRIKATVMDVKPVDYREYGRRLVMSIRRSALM

**Q.** With `CCc1nc(N)nc(N)c1-c1ccc(Cl)cc1` [pyrimethamine] as the compound, how does the “Log2 (PYR/DMSO)” value [1] read?
**A.** Its value is 0.13.

**Q.** And the “Log2 (PYR/DMSO)” value [2]?
**A.** The value was 0.16.

**Q.** And the “Log2 (PYR/DMSO)” value [3]?
**A.** The value was 0.17.

**Q.** And the “Log2 (PYR/DMSO)” value [4]?
**A.** The value was 0.15.

**Q.** And the “Log2 (PYR/DMSO), ZNF148” value [5]?
**A.** Its value is 0.26.

**Q.** What about the “Log2 (PYR/DMSO)” value [6] of the same compound?
**A.** Its value is 0.19.

**Q.** And the “Log2 (PYR/DMSO)” value [7]?
**A.** Its value is 0.17.

**Q.** What about the “Log2 (PYR/DMSO)” value [8] of the same compound?
**A.** Its value is 0.14.

**Q.** What about the “Log2 (PYR/DMSO), MSI2” value [9] of the same compound?
**A.** Its value is -0.17.

**Q.** And the “Log2 (PYR/DMSO)” value [10]?
**A.** The value was 0.16.

**Q.** And the “Log2 (PYR/DMSO)” value [11]?
**A.** The value was 0.16.

**Q.** What about the “Log2 (PYR/DMSO)” value [12] of the same compound?
**A.** The value was 0.14.

**Q.** What about the “Log2 (PYR/DMSO)” value [13] of the same compound?
**A.** Its value is 0.18.

**Q.** What about the “Log2 (PYR/DMSO)” value [14] of the same compound?
**A.** Its value is 0.20.

**Q.** And the “Log2 (PYR/DMSO)” value [15]?
**A.** Its value is 0.18.

**Q.** What about the “Log2 (PYR/DMSO)” value [16] of the same compound?
**A.** The value was 0.14.

**Q.** What about the “Log2 (PYR/DMSO)” value [17] of the same compound?
**A.** Its value is -0.04.

**Q.** What about the “Log2 (PYR/DMSO)” value [18] of the same compound?
**A.** The value was 0.18.

**Q.** And the “Log2 (PYR/DMSO), C11orf73” value [19]?
**A.** The value was 0.28.

**Q.** What about the “Log2 (PYR/DMSO)” value [20] of the same compound?
**A.** The value was 0.16.

**Q.** And the “Log2 (PYR/DMSO), ASMTL” value [21]?
**A.** Its value is 0.27.

**Q.** What about the “Log2 (PYR/DMSO)” value [22] of the same compound?
**A.** Its value is 0.15.

**Q.** And the “Log2 (PYR/DMSO), MCEE” value [23]?
**A.** Its value is 0.25.

**Q.** What about the “Log2 (PYR/DMSO)” value [24] of the same compound?
**A.** Its value is -0.03.

**Q.** And the “Log2 (PYR/DMSO)” value [25]?
**A.** Its value is 0.17.

**Q.** What about the “Log2 (PYR/DMSO)” value [26] of the same compound?
**A.** Its value is -0.04.

**Q.** And the “Log2 (PYR/DMSO)” value [27]?
**A.** Its value is -0.05.

**Q.** And the “Log2 (PYR/DMSO)” value [28]?
**A.** Its value is 0.19.

**Q.** And the “Log2 (PYR/DMSO), CEP85L” value [29]?
**A.** The value was -0.24.

Reference: publication PMC8800111 (The Journal of Biological Chemistry, 2021)
